Structures can show the parent of a compound that is named as a salt.
Key:
NLRP3 [1] = target: T1, NLRP3 (Homo sapiens, UniProt Q96P20); experiment: Human whole blood IL1β release assay (LPS + nigericin, AlphaLisa IL-1β); type: cell-based; parameters: Human whole blood in Li-heparin tubes was obtained from healthy donors from a volunteer donor panel; from tissue; host or cells: human whole blood from healthy donors; conditions: NLRP3 inhibitory activity, 1 μg/ml LPS, 10 μM nigericin, IL-1β release, read-out: HWB IC50
Experimental: For systemic delivery, the ability to inhibit NLRP3 when the compounds are present within the bloodstream is of great importance. For this reason, the NLRP3 inhibitory activity of a number of compounds in human whole blood was investigated in accordance with the following protocol.
Human whole blood in Li-heparin tubes was obtained from healthy donors from a volunteer donor panel. • 1. Plate out 80 μl of whole blood containing 1 μg/ml of LPS in 96-well, clear bottom cell culture plate (Corning #3585) • 2. Add 10 μl compound (8 points half-log dilution with 10 μM top dose) or vehicle (DMSO 0.1% FAC) to the appropriate wells • 3. Incubate for 3 hrs at 37° C., 5% CO2 • 4. Add 10 μl Nigericin (Sigma #N7143) (10 μM FAC) to all wells • 5. Incubate for 1 hr at 37° C., 5% CO2 • 6. At the end of the incubation period, spin plates at 300×g for 5 mins to pellet cells and remove 20 μl of supernatant and add to 96-well v-bottom plates for IL-1β analysis (note: these plates containing the supernatants can be stored at −80° C. to be analysed at a later date) • 7. IL-1β was measured according to the manufacturer protocol (Perkin Elmer-AlphaLisa IL-1β Kit AL220F-5000) • 8. IC50 data is fitted to a non-linear regression equation (log inhibitor vs response-variable slope 4-parameters)

NLRP3 [2] = target: T1, NLRP3; experiment: THP-1 cells pyroptosis assay (LPS + nigericin, resazurin readout); type: cell-based; parameters: Seed THP-1 cells (25,000 cells/well) containing 1.0 μg/ml LPS in 40 μl of RPMI medium; host or cells: THP-1 cells; conditions: NLRP3 inhibitory activity, 1.0 μg/ml LPS, 5 μM nigericin
Experimental: THP-1 cells (ATCC #TIB-202) were grown in RPMI containing L-glutamine (Gibco #11835) supplemented with 1 mM sodium pyruvate (Sigma #S8636) and penicillin (100 units/ml)/streptomycin (0.1 mg/ml) (Sigma #P4333) in 10% Fetal Bovine Serum (FBS) (Sigma #F0804). The cells were routinely passaged and grown to confluency (˜10^6 cells/ml). On the day of the experiment, THP-1 cells were harvested and resuspended into RPMI medium (without FBS). The cells were then counted and viability (>90%) checked by Trypan blue (Sigma #T8154). Appropriate dilutions were made to give a concentration of 625,000 cells/ml. To this diluted cell solution was added LPS (Sigma #L4524) to give a […] Final Assay Concentration (FAC). 40 μl of the final preparation was aliquoted into each well of a 96-well plate. The plate thus prepared was used for compound screening.
The following method step-by-step assay was followed for compound screening. • 1. Seed THP-1 cells (25,000 cells/well) containing 1.0 μg/ml LPS in 40 μl of RPMI medium (without FBS) in 96-well, black walled, clear bottom cell culture plates coated with poly-D-lysine (VWR #734-0317) • 2. Add 5 μl compound (8 points half-log dilution, with 10 μM top dose) or vehicle (DMSO 0.1% FAC) to the appropriate wells • 3. Incubate for 3 hrs at 37° C. in 5% CO2 • 4. Add 5 μl nigericin (Sigma #N7143) (FAC 5 μM) to all wells • 5. Incubate for 1 hr at 37° C. and 5% CO2 • 6. At the end of the incubation period, spin plates at 300×g for 3 mins and remove supernatant • 7. Then add 50 μl of resazurin (Sigma #R7017) (FAC 100 μM resazurin in RPMI medium without FBS) and incubate plates for a further 1-2 hrs at 37° C. and 5% CO2 • 8. Plates were read in an Envision reader at Ex 560 nm and Em 590 nm • 9. IC50 data is fitted to a non-linear regression equation (log inhibitor vs response-variable slope 4-parameters)

T1 sequence (Q96P20 whole entry): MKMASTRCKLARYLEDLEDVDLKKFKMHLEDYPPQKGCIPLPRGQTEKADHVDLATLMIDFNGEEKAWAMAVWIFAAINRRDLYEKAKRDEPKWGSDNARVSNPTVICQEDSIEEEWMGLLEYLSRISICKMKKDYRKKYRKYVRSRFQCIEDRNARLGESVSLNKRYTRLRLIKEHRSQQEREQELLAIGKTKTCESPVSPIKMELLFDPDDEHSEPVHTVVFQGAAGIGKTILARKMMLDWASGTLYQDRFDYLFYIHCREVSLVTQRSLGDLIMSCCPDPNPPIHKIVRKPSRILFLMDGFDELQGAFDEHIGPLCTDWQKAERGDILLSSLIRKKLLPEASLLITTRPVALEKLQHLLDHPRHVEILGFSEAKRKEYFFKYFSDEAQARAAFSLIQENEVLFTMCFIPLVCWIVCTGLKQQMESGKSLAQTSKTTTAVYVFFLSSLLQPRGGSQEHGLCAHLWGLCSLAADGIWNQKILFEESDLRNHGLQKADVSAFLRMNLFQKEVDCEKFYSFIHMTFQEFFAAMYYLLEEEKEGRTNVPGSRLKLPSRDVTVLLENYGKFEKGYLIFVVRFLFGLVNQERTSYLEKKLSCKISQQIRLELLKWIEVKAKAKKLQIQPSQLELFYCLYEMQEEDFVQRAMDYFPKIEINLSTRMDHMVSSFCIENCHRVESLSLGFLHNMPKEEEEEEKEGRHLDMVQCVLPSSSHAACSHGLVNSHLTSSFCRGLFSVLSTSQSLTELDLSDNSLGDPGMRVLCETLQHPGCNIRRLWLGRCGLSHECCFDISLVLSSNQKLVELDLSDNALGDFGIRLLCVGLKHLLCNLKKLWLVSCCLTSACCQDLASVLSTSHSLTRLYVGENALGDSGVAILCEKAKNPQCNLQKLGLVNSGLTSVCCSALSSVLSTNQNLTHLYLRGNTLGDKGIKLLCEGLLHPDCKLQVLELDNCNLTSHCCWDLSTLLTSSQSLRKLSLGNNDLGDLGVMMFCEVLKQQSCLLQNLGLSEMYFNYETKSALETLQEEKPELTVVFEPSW

IC50 (NLRP3 [1]) | IC50 (NLRP3 [2]) | SMILES
1600 to 3200 nM | 160 to 640 nM | CC(C)Oc1cc(-c2cc(F)cc(C(C)C)c2NC(=O)NS(=O)(=O)c2cc(C(=O)N(C)C)n(C)n2)ccn1 [Example 176, 3-(N-((4-Fluoro-2-(2-isopropoxypyridin-4-yl)-6-isopropyl-phenyl)carbamoyl)sulfamoyl)-N,N,1-trimethyl-1H-pyrazole-5-carboxamide, sodium salt]
< 400 nM | < 40 nM | CCn1nc(S(=O)(=O)NC(=O)Nc2c(-c3ccnc(OC)c3)cc(F)c3c2CCC3)cc1CN(C)C [Example 21, 5-((Dimethylamino)methyl)-1-ethyl-N-((7-fluoro-5-(2-methoxypyridin-4-yl)-2,3-dihydro-1H-inden-4-yl)carbamoyl)-1H-pyrazole-3-sulfonamide]
< 400 nM | < 40 nM | CCC(c1cc(S(=O)(=O)NC(=O)Nc2c3c(cc4c2CCC4)CCC3)nn1C)N(C)C (single isomer, unassigned; enantiomer 1) [Example 71, 5-(1-(Dimethylamino)propyl)-N-((1,2,3,5,6,7-hexahydro-s-indacen-4-yl)carbamoyl)-1-methyl-1H-pyrazole-3-sulfonamide, Enantiomer 1]
3200 to 10000 nM | 2560 to 10000 nM | COCCN(CCOC)C(=O)c1cc(S(=O)(=O)NC(=O)Nc2c(-c3ccnc(OC(C)C)c3)cc(F)cc2C(C)C)nn1C [Example 174, 3-(N-((4-Fluoro-2-(2-isopropoxypyridin-4-yl)-6-isopropyl-phenyl)carbamoyl)sulfamoyl)-N,N-bis(2-methoxyethyl)-1-methyl-1H-pyrazole-5-carboxamide, sodium salt]
400 to 800 nM | < 40 nM | CC(c1cc(S(=O)(=O)NC(=O)Nc2c3c(cc4c2CCC4)CCC3)nn1C1CC1)N(C)C (stereo not drawn) [Example 22, 1-Cyclopropyl-5-(1-(dimethylamino)ethyl)-N-((1,2,3,5,6,7-hexahydro-s-indacen-4-yl)carbamoyl)-1H-pyrazole-3-sulfonamide]
< 400 nM | 40 to 160 nM | COc1cc(-c2cc(F)cc(C(C)C)c2NC(=O)NS(=O)(=O)c2cc(CN(C)C)n(C(C)C)n2)ccn1 [Example 47, 5-((Dimethylamino)methyl)-N-((4-fluoro-2-isopropyl-6-(2-methoxypyridin-4-yl)phenyl)carbamoyl)-1-isopropyl-1H-pyrazole-3-sulfonamide]
800 to 1600 nM | 40 to 160 nM | COc1cc(-c2ccc3c(c2NC(=O)NS(=O)(=O)c2cc(C4CCCN4C)n(C(C)C)n2)CCC3)ccn1 (stereo not drawn) [Example 179]
800 to 1600 nM | < 40 nM | CCC(c1cc(S(=O)(=O)NC(=O)Nc2c(C(C)C)cc(Cl)cc2C(C)C)nn1C)N(C)C (stereo not drawn) [Example 64, N-((4-Chloro-2,6-diisopropylphenyl)carbamoyl)-5-(1-(dimethylamino)propyl)-1-methyl-1H-pyrazole-3-sulfonamide]
400 to 800 nM | 160 to 640 nM | CC(C)c1cc(F)cc(-c2ccccc2)c1NC(=O)NS(=O)(=O)c1cc(CN(C)C)n(C)n1 [Example 66, 5-((Dimethylamino)methyl)-N-((5-fluoro-3-isopropyl-[1,1′-biphenyl]-2-yl)carbamoyl)-1-methyl-1H-pyrazole-3-sulfonamide]
< 400 nM | < 40 nM | COc1cc(-c2ccc3c(c2NC(=O)NS(=O)(=O)c2cc(CN(C)C)n(C(C)C)n2)CCC3)ccn1 [Example 181]
400 to 800 nM | < 40 nM | CN(C)C1CCCn2nc(S(=O)(=O)NC(=O)Nc3c4c(cc5c3CCC5)CCC4)cc21 (stereo not drawn) [Example 60, 4-(Dimethylamino)-N-((1,2,3,5,6,7-hexahydro-s-indacen-4-yl)carbamoyl)-4,5,6,7-tetrahydropyrazolo[1,5-a]pyridine-2-sulfonamide]
400 to 800 nM | 40 to 160 nM | CCn1nc(S(=O)(=O)NC(=O)Nc2c(-c3cccc(C#N)c3)ccc3c2CCC3)cc1CN(C)C [Example 173]
